Results as given in patent US20260217708A1, “FUSED BENZAZEPINE DERIVATIVES FOR USE IN THE TREATMENT OF CANCER AND EPILEPSY” (UCB BIOPHARMA SRL, priority 2023, published 2026).

Assays:
[1] = biological target: T1, system Xc^− (Homo sapiens, UniProt Q9UPY5); experiment: Cystine-induced glutamate release assay; type: cell-based; design: endogenous in cells; host or cells: H4 cells; settings: H4 cells, sodium-free HEPES buffer, 50 μM L-Cystine, 2 hours, Amplex Red glutamate readout; for IC50: read-out: pIC50 Cystine-induced glutamate release assay (converted)
T1 sequence (Q9UPY5 1-501): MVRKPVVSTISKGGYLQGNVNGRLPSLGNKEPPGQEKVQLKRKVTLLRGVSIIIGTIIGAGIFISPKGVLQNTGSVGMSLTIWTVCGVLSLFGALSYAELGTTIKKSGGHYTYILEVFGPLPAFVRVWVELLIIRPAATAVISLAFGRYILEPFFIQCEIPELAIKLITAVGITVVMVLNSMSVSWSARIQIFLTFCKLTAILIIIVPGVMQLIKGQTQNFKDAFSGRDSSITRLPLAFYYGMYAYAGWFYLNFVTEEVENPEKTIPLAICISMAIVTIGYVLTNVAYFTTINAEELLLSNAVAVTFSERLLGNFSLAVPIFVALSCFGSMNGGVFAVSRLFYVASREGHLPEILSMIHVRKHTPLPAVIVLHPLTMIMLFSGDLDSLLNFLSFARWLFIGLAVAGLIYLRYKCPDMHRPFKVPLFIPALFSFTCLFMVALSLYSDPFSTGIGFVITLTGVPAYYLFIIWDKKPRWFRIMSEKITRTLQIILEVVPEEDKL
T1 sequence (P08195 1-529 partner): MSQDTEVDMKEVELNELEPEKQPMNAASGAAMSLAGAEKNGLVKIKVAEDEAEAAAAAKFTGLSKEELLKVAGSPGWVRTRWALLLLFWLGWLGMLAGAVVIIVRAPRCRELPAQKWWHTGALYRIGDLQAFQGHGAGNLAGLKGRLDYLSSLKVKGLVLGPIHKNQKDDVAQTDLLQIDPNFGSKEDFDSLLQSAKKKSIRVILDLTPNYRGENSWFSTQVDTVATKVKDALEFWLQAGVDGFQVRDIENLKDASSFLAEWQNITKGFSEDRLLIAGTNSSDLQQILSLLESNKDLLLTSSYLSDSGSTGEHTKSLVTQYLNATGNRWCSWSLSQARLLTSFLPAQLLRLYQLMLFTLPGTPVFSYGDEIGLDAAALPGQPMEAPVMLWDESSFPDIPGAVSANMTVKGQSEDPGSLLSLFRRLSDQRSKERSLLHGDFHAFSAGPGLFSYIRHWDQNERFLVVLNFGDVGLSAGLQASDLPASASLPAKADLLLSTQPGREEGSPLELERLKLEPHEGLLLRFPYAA
In short: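 H4 cells in sodium-free HEPES buffer (pH 7.4), 2 days after plating; glutamate release induced with 50 μM L-cystine plus compound (1% DMSO), 2 h at 37 °C. Supernatant glutamate measured by Amplex Red fluorescence; IC50/pIC50 derived between 1% DMSO and 50 μM erastin controls.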

[2] = biological target: T1, system Xc^−; experiment: [^14C]L-Cystine uptake assay; type: cell-based; design: endogenous in cells; host or cells: H4 cells; settings: H4 cells, sodium-free HEPES buffer, 0.5 μM L-[14C]Cystine and 4.5 μM L-Cystine, 1 hour at 37° C.; read-out: pIC50 [^14C] L-Cystine uptake assay (converted)
In short: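 H4 cells at 5×10^4 cells/well in sodium-free HEPES buffer were preincubated 15 min with compounds (1% DMSO). Uptake of 0.5 μM [14C]L-cystine plus 4.5 μM unlabelled L-cystine ran 1 hour at 37° C on scintillating plates. IC50 was set between 1% DMSO and 50 μM Erastin controls and expressed as pIC50.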

IC50 [1]	IC50 [2]	pIC50 Cystine-induced glutamate release assay [1]	Compound
< 15.8 nM	39.8 to 100 nM	–	CC1C(=O)N(CC(=O)Nc2ccc(C(F)F)cc2)c2cc(C#N)ccc2-c2cccnc21 (single isomer, unassigned) [#312, 2-[9-cyano-5-methyl-6-oxo-5H-pyrido[2,3-d][1]benzazepin-7-yl]-N-[4-(difluoromethyl)phenyl]acetamide]
< 15.8 nM	15.8 to 39.8 nM	–	CC1C(=O)N(CC(=O)Nc2ccc(C(F)F)cc2)c2cc(Cl)cc(F)c2-c2cncnc21 (single isomer, unassigned) [#313, 2-[9-chloro-11-fluoro-5-methyl-6-oxo-5H-pyrimido[4,5-d][1]benzazepin-7-yl]-N-[4-(difluoromethyl)phenyl]acetamide]
15.8 to 39.8 nM	< 15.8 nM	–	CC1C(=O)N(CC(=O)Nc2ccc(Cl)c(F)c2)c2cc(Cl)cc(F)c2-c2cncnc21 (single isomer, unassigned) [#314, 2-[9-chloro-11-fluoro-5-methyl-6-oxo-5H-pyrimido[4,5-d][1]benzazepin-7-yl]-N-(4-chloro-3-fluoro-phenyl)acetamide]
< 15.8 nM	< 15.8 nM	–	COc1cc(F)c2c(c1)N(CC(=O)Nc1ccc(C(F)F)cc1)C(=O)C(C)c1ncccc1-2 (single isomer, unassigned) [#315, N-[4-(difluoromethyl)phenyl]-2-[11-fluoro-9-methoxy-5-methyl-6-oxo-5H-pyrido[2,3-d][1]benzazepin-7-yl]acetamide]
15.8 to 39.8 nM	15.8 to 39.8 nM	–	COc1cc(F)c2c(c1)N(CC(=O)Nc1ccc(Cl)c(F)c1)C(=O)C(C)c1ncccc1-2 (single isomer, unassigned) [#316, N-(4-chloro-3-fluoro-phenyl)-2-[11-fluoro-9-methoxy-5-methyl-6-oxo-5H-pyrido[2,3-d][1]benzazepin-7-yl]acetamide]
< 15.8 nM	15.8 to 39.8 nM	–	O=C(CN1C(=O)C(O)c2ncc(F)cc2-c2c(F)cc(F)cc21)Nc1ccc(Cl)c(F)c1 (single isomer, unassigned) [#317, N-(4-chloro-3-fluoro-phenyl)-2-[2,9,11-trifluoro-5-hydroxy-6-oxo-5H-pyrido[2,3-d][1]benzazepin-7-yl]acetamide]
15.8 to 39.8 nM	39.8 to 100 nM	–	COc1cc2c(cn1)-c1cccnc1C(C)C(=O)N2CC(=O)Nc1ccc(C(F)F)cc1 (single isomer, unassigned) [#319, N-[4-(difluoromethyl)phenyl]-2-[5-methoxy-10-methyl-9-oxo-4,8,12-triazatricyclo[9.4.0.0^2,7]pentadeca-1(15),2(7),3,5,11,13-hexaen-8-yl]acetamide]
15.8 to 39.8 nM	15.8 to 39.8 nM	–	COc1cc2c(cn1)-c1cccnc1C(C)C(=O)N2CC(=O)Nc1ccc(Cl)c(F)c1 (single isomer, unassigned) [#320, N-(4-chloro-3-fluoro-phenyl)-2-[5-methoxy-10-methyl-9-oxo-4,8,12-triazatricyclo[9.4.0.0^2,7]pentadeca-1(15),2(7),3,5,11,13-hexaen-8-yl]acetamide]
< 15.8 nM	< 15.8 nM	–	Cc1cc2c(cn1)-c1ccc(F)cc1C(C)C(=O)N2CC(=O)Nc1ccc(C(F)F)cc1 (single isomer, unassigned) [#323, N-[4-(difluoromethyl)phenyl]-2-[9-fluoro-3,7-dimethyl-6-oxo-7H-pyrido[3,4-a][3]benzazepin-5-yl]acetamide]
< 15.8 nM	< 15.8 nM	–	Cc1cc2c(cn1)-c1ccc(F)cc1C(C)C(=O)N2CC(=O)Nc1ccc(Cl)c(F)c1 (single isomer, unassigned) [#324, N-(4-chloro-3-fluoro-phenyl)-2-[9-fluoro-3,7-dimethyl-6-oxo-7H-pyrido[3,4-a][3]benzazepin-5-yl]acetamide]
15.8 to 39.8 nM	< 15.8 nM	–	CC1C(=O)N(CC(=O)Nc2ccc(C(F)F)cc2)c2cc(C3(F)CC3)ncc2-c2cc(F)cnc21 (single isomer, unassigned) [#325, N-[4-(difluoromethyl)phenyl]-2-[14-fluoro-5-(1-fluorocyclopropyl)-10-methyl-9-oxo-4,8,12-triazatricyclo[9.4.0.0^2,7]pentadeca-1(11),2,4,6,12,14-hexaen-8-yl]acetamide]
< 15.8 nM	< 15.8 nM	–	CC1C(=O)N(CC(=O)Nc2ccc(Cl)c(F)c2)c2cc(C3(F)CC3)ncc2-c2cc(F)cnc21 (single isomer, unassigned) [#326, N-(4-chloro-3-fluoro-phenyl)-2-[14-fluoro-5-(1-fluorocyclopropyl)-10-methyl-9-oxo-4,8,12-triazatricyclo[9.4.0.0^2,7]pentadeca-1(15),2,4,6,11,13-hexaen-8-yl]acetamide]
< 15.8 nM	< 15.8 nM	–	Cc1cc2c(cn1)-c1cc(F)cnc1C(C)C(=O)N2CC(=O)Nc1ccc(Cl)c(F)c1 (single isomer, unassigned) [#327, N-(4-chloro-3-fluoro-phenyl)-2-[14-fluoro-5,10-dimethyl-9-oxo-4,8,12-triazatricyclo[9.4.0.0^2,7]pentadeca-1(15),2,4,6,11,13-hexaen-8-yl]acetamide]
< 15.8 nM	15.8 to 39.8 nM	–	Cc1cc2c(cn1)-c1cc(F)cnc1C(C)C(=O)N2CC(=O)Nc1ccc(C(F)F)cc1 (single isomer, unassigned) [#328, N-[4-(difluoromethyl)phenyl]-2-[14-fluoro-5,10-dimethyl-9-oxo-4,8,12-triazatricyclo[9.4.0.0^2,7]pentadeca-1(15),2,4,6,11,13-hexaen-8-yl]acetamide]
15.8 to 39.8 nM	15.8 to 39.8 nM	–	COc1nc(OC(F)F)cc2c1-c1cccnc1C(C)C(=O)N2CC(=O)Nc1ccc(C(F)F)cc1 (single isomer, unassigned) [#329, 2-[5-(difluoromethoxy)-3-methoxy-10-methyl-9-oxo-4,8,12-triazatricyclo[9.4.0.0^2,7]pentadeca-1(15),2(7),3,5,11,13-hexaen-8-yl]-N-[4-(difluoromethyl)phenyl]acetamide]
–	< 15.8 nM	C (about 7.40 < pIC50 ≤ about 7.80)	COc1nc(OC(F)F)cc2c1-c1cccnc1C(C)C(=O)N2CC(=O)Nc1ccc(C(F)F)cc1 (single isomer, unassigned) [#330, 2-[5-(difluoromethoxy)-3-methoxy-10-methyl-9-oxo-4,8,12-triazatricyclo[9.4.0.0^2,7]pentadeca-1(15),2(7),3,5,11,13-hexaen-8-yl]-N-[4-(difluoromethyl)phenyl]acetamide]
39.8 to 100 nM	15.8 to 39.8 nM	–	CC1C(=O)N(CC(=O)Nc2ccc(C(F)(F)F)nc2)c2cc(Cl)cc(F)c2-c2cccnc21 (single isomer, unassigned) [#331, 2-[9-chloro-11-fluoro-5-methyl-6-oxo-5H-pyrido[2,3-d][1]benzazepin-7-yl]-N-[6-(trifluoromethyl)-3-pyridyl]acetamide]
15.8 to 39.8 nM	< 15.8 nM	–	CC1C(=O)N(CC(=O)Nc2ccc(C(F)F)cc2)c2cc(Cl)cc(F)c2-c2cccnc21 (single isomer, unassigned) [#332, 2-[9-chloro-11-fluoro-5-methyl-6-oxo-5H-pyrido[2,3-d][1]benzazepin-7-yl]-N-[4-(difluoromethyl)phenyl]acetamide]
39.8 to 100 nM	15.8 to 39.8 nM	–	CC1C(=O)N(CC(=O)Nc2ccc(C(F)(F)F)nc2)c2cc(N3CC(F)(F)C3)ccc2-c2cccnc21 (single isomer, unassigned) [#333, 2-[9-(3,3-difluoroazetidin-1-yl)-5-methyl-6-oxo-5H-pyrido[2,3-d][1]benzazepin-7-yl]-N-[6-(trifluoromethyl)-3-pyridyl]acetamide]
